Measured values taken from ChEMBL document CHEMBL3885861, “Open TG-GATES”.

Species on record: Rattus norvegicus
Assay: Open TG-GATES - Regimen: Single
Assay type: toxicity, organism-based, Sprague-Dawley
Set-up: regimen Single, gender Male, age 6 weeks
Conditions: in vivo, po, 60 mg/kg, route gavage, dose level High; for APTT / Bas / Eos / Fbg / Hb / Ht / Lym / MCH / MCHC / MCV / Mono / Neu / PT / Plat / RBC / WBC: tissue Blood; for KIDNEY_L / KIDNEY_R / KIDNEY_TOTAL: tissue Kidney; for LIVER: tissue Liver; for ALT / AST / BUN / CRE / Cl / DBIL / GLC / IP / LDH / Na / RALB / TBIL / TC / TG / TP / gamma-GTP: tissue Plasma

In the case of `CC/C(=C(\c1ccccc1)c1ccc(OCCN(C)C)cc1)c1ccccc1` [TAMOXIFEN], the TERMINAL_BW (3 h) is reported as 193.1 g, the APTT (3 h) is reported as 16.1 s and the Bas (3 h) is reported as 0%. It also gave an Eos (3 h) of 1%, a Fbg (3 h) of 259.8 mg/dL and a Hb (3 h) of 13.1 g/dL. The Ht (3 h) was 39.5%, the Lym (3 h) was 77.6% and the MCH (3 h) was 21.8 pg. It also gave an MCHC (3 h) of 33.3%, an MCV (3 h) of 65.7 fL and a Mono (3 h) of 3.8%. For the same compound, the Neu (3 h) was 17.4%, the PT (3 h) was 11.9 s and the Plat (3 h) was 112.1 x10_4/uL. For the same compound, the RBC (3 h) was 601.4 x10_4/ul, the WBC (3 h) was 80.5 x10_2/uL and the KIDNEY_L (3 h) was 0.9 g. The KIDNEY_R (3 h) was 0.9 g, the KIDNEY_TOTAL (3 h) was 1.7 g and the LIVER (3 h) was 8.3 g. It also gave an ALT (3 h) of 50.8 IU/L, an AST (3 h) of 82.6 IU/L and a BUN (3 h) of 9.4 mg/dL. The CRE (3 h) was 0.2 mg/dL, the Cl (3 h) was 106.8 meq/L and the DBIL (3 h) was 0.026 mg/dL. For the same compound, the GLC (3 h) was 169.2 mg/dL, the IP (3 h) was 9.5 mg/dL and the LDH (3 h) was 77 IU/L. It also gave a Na (3 h) of 140.8 meq/L, an RALB (3 h) of 2.6 g/dL and a TBIL (3 h) of 0.05 mg/dL. For the same compound, the TC (3 h) was 80 mg/dL, the TG (3 h) was 106.2 mg/dL and the TP (3 h) was 5.6 g/dL. It also gave a gamma-GTP (3 h) of 1 IU/L, a TERMINAL_BW (6 h) of 193.6 g and a Bas (6 h) of 0%. It also gave an Eos (6 h) of 0.8%, a Fbg (6 h) of 252.6 mg/dL and a Hb (6 h) of 12.8 g/dL. The Lym (6 h) was 78.8%, the MCH (6 h) was 21.5 pg and the MCHC (6 h) was 33.4%. The MCV (6 h) was 64.3 fL, the Mono (6 h) was 2.6% and the Neu (6 h) was 17.6%. The PT (6 h) was 12.2 s, the Plat (6 h) was 112.7 x10_4/uL and the RBC (6 h) was 595.6 x10_4/ul. It also gave a WBC (6 h) of 59.9 x10_2/uL, a KIDNEY_L (6 h) of 0.8 g and a KIDNEY_R (6 h) of 0.9 g. For the same compound, the KIDNEY_TOTAL (6 h) was 1.7 g, the LIVER (6 h) was 7.5 g and the ALT (6 h) was 38.8 IU/L. The AST (6 h) was 74.2 IU/L, the BUN (6 h) was 7.6 mg/dL and the CRE (6 h) was 0.2 mg/dL. It also gave a Cl (6 h) of 109.4 meq/L, a DBIL (6 h) of 0.012 mg/dL and a GLC (6 h) of 175 mg/dL. For the same compound, the IP (6 h) was 10.4 mg/dL, the LDH (6 h) was 54.4 IU/L and the Na (6 h) was 141.8 meq/L. The RALB (6 h) was 2.5 g/dL, the TBIL (6 h) was 0.042 mg/dL and the TC (6 h) was 76.4 mg/dL. For the same compound, the TG (6 h) was 56.2 mg/dL, the TP (6 h) was 5.2 g/dL and the gamma-GTP (6 h) was 1.2 IU/L. It also gave a TERMINAL_BW (9 h) of 193.9 g, an APTT (9 h) of 14.5 s and a Bas (9 h) of 0%. The Eos (9 h) was 0.8%, the Fbg (9 h) was 274.6 mg/dL and the Hb (9 h) was 13 g/dL. It also gave a Ht (9 h) of 38.6%, a Lym (9 h) of 79% and an MCH (9 h) of 22.2 pg. For the same compound, the MCHC (9 h) was 33.7%, the MCV (9 h) was 65.8 fL and the Mono (9 h) was 2.4%. It also gave a Neu (9 h) of 17.4%, a PT (9 h) of 12.1 s and a Plat (9 h) of 121.3 x10_4/uL. For the same compound, the RBC (9 h) was 586.6 x10_4/ul, the WBC (9 h) was 71.5 x10_2/uL and the KIDNEY_L (9 h) was 0.8 g. The KIDNEY_R (9 h) was 0.8 g, the KIDNEY_TOTAL (9 h) was 1.7 g and the LIVER (9 h) was 7.3 g. The ALT (9 h) was 43.8 IU/L, the AST (9 h) was 75.2 IU/L and the BUN (9 h) was 8.4 mg/dL. For the same compound, the CRE (9 h) was 0.2 mg/dL, the Cl (9 h) was 107 meq/L and the DBIL (9 h) was 0.01 mg/dL. For the same compound, the GLC (9 h) was 184.6 mg/dL, the IP (9 h) was 11.2 mg/dL and the LDH (9 h) was 59.8 IU/L. It also gave a Na (9 h) of 141.6 meq/L, an RALB (9 h) of 2.5 g/dL and a TBIL (9 h) of 0.044 mg/dL. It also gave a TC (9 h) of 79.4 mg/dL, a TG (9 h) of 39 mg/dL and a TP (9 h) of 5.3 g/dL. It also gave a gamma-GTP (9 h) of 1.4 IU/L, a TERMINAL_BW (24 h) of 193.1 g and an APTT (24 h) of 15.8 s. It also gave a Bas (24 h) of 0.2%, an Eos (24 h) of 1.2% and a Fbg (24 h) of 260.2 mg/dL. The Hb (24 h) was 13.2 g/dL, the Ht (24 h) was 39.4% and the Lym (24 h) was 80.8%. The MCH (24 h) was 21.5 pg, the MCHC (24 h) was 33.4% and the MCV (24 h) was 64.5 fL. It also gave a Mono (24 h) of 3.2%, a Neu (24 h) of 14.2% and a PT (24 h) of 12.9 s. It also gave a Plat (24 h) of 113.6 x10_4/uL, an RBC (24 h) of 611.2 x10_4/ul and a WBC (24 h) of 91.3 x10_2/uL. The KIDNEY_L (24 h) was 0.9 g, the KIDNEY_R (24 h) was 0.9 g and the KIDNEY_TOTAL (24 h) was 1.7 g. The LIVER (24 h) was 8.4 g, the ALT (24 h) was 45 IU/L and the AST (24 h) was 71.6 IU/L. It also gave a BUN (24 h) of 12.8 mg/dL, a CRE (24 h) of 0.2 mg/dL and a Cl (24 h) of 109.4 meq/L. For the same compound, the DBIL (24 h) was 0.018 mg/dL, the GLC (24 h) was 185.8 mg/dL and the IP (24 h) was 8.3 mg/dL. For the same compound, the LDH (24 h) was 54 IU/L, the Na (24 h) was 143.2 meq/L and the RALB (24 h) was 2.6 g/dL. The TBIL (24 h) was 0.044 mg/dL, the TC (24 h) was 51.4 mg/dL and the TG (24 h) was 81 mg/dL. It also gave a TP (24 h) of 5.4 g/dL and a gamma-GTP (24 h) of 1 IU/L.
